Data as given in patent US20130178454A1, “COMBINATION OF TESTOSTERONE AND ORNITHINE DECARBOXYLASE (ODC) INHIBITORS” (priority 2011, published 2013).
Entries after “also recorded” stand apart in the source; their conditions may differ.

Legend:
[1] = system: castrated C57BL/6 mice; assay: Prostate and levator ani muscle weights in castrated mice treated with testosterone or testosterone plus DFMO (FIG. 9); format: in vivo
Excerpt: Shown is a histogram showing prostate weights and levator ani muscle weights in vehicle-treated intact C57BL/6 mice, and castrated mice treated with vehicle, testosterone, or testosterone plus an ODC inhibitor DFMO.

[2] = target: T1, ornithine decarboxylase (Homo sapiens, UniProt P11926); conditions: cited from earlier work
T1 sequence (P11926 1-461): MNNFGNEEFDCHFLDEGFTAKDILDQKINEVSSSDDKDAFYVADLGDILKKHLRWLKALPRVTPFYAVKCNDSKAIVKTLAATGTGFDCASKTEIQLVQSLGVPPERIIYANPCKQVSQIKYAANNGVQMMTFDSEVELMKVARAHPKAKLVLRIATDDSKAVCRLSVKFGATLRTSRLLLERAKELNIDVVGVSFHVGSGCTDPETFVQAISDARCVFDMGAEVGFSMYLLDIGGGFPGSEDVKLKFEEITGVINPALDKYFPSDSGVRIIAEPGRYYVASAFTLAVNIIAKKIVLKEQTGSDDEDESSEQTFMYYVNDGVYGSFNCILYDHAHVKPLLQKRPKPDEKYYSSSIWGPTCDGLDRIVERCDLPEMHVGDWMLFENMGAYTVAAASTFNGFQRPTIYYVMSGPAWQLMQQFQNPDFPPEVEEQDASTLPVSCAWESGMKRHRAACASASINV

[3] = system: carcinogen-induced cancer development; conditions: variety of rodent models; cited from earlier work
[4] = system: PSA expression in the prostate epithelial cells; assay: PSA expression in prostate epithelial cells (FIG. 7B); format: cell-based; conditions: follistatin 1 ng/ml and 5 ng/ml, R1881 1 nM
[5] = system: PCNA expression in the prostate epithelial cells; assay: PCNA expression in prostate epithelial cells (FIG. 7C); format: cell-based; conditions: follistatin 1 ng/ml and 5 ng/ml, DHT 10 nM
[6] = system: castrated (CX) mice; assay: Histologic sections of the prostate in castrated mice (FIG. 7A); format: in vivo
[7] = system: ornithine decarboxylase (ODC) and polyamine pathway in the prostate; assay: Microarrays of prostate RNA from castrated mice treated with follistatin or testosterone (FIG. 8); format: in vivo; conditions: microarray
Excerpt: FIG. 8A is a schematic of microarray experiments to identify testosterone-selective signalling pathways in the prostate which are not activated by follistatin (Fst), and identify genes which are follistatin sensitive and those which are testosterone sensitive. Adult male mice were either sham-castrated or castrated under ketamine-xylazine anesthesia and treated with vehicle (sham), follistatin or testosterone. RNA was extracted from the prostate and levator ani muscle and subjected to microarrays. […] Shown in the box is the region of highly differentially expressed genes between the follistatin (Fst/CX) and testosterone (Tes/CX) treated mice.
Using microarrays, the inventors elucidated the signaling pathways that are differentially activated in the skeletal muscle and prostate by each of testosterone and follistatin, and assessed the pathways that are specifically activated in the prostate by testosterone, but were not follistatin (FIG. 8A-8B). The inventors determined that testosterone and follstatin both activate common signaling pathways that mediate their anabolic effects on the skeletal muscle, and specifically assessed if testosterone activates one or more unique signaling pathways in the prostate that are not activated by follistatin.

[8] = system: C3H 10T1/2 cells; conditions: 100 nm testosterone, 0.5 μg/ml anti-Fst antibody, rFst 0.2 μg/ml; cited from earlier work
[9] = system: Wnt target genes in 3T3-L1 cells; conditions: 3T3-L1 cells incubated with 100 nM testosterone; cited from earlier work
[10] = system: older men with low or low normal testosterone levels; conditions: testosterone versus placebo; cited from earlier work
[11] = cited from earlier work
[12] = system: C57BL/6 mice; assay: Systemic follistatin treatment of mice: fat mass, lean mass, muscle and bone mass (FIG. 6); format: in vivo
[13] = system: LNCaP cells; assay: Proliferation of androgen-sensitive LNCaP cells in vitro; format: cell-based
[14] = mice in vivo, given with testosterone

In the case of `NCCCC(N)(C(=O)O)C(F)F` (racemic) [DFMO, (RS)-2,5-diamino-2-(difluoromethyl)pentanoic acid], the “effect of the ODC inhibitor on testosterone's anabolic effect on the muscle” value [1, 14] is given as “did not block testosterone's effect on the muscle; also recorded: maintaining muscle anabolic effects of testosterone”, the “effect of the ODC inhibitor on testosterone-induced prostate growth” value [1, 14] is given as “blocks testosterone's effects on the prostate; also recorded: suppresses testosterone-induced prostate growth in vivo” and the “inhibition of ornithine decarboxylase” value [2] is given as “potent inhibitor of ornithine decarboxylase”. The carcinogen-induced cancer development [3] was “inhibit carcinogen-induced cancer development”.

For `C[C@]1(O)CC[C@H]2[C@@H]3CCC4=CC(=O)CCC4=C3C=C[C@@]21C` [R1881], the PSA expression [4] was “stimulates PSA expression”.

For `C[C@]12CCC(=O)C[C@@H]1CC[C@@H]1[C@@H]2CC[C@]2(C)[C@@H](O)CC[C@@H]12` [DHT, Dihydrotestosterone], the PCNA expression [5] was “upregulated PCNA expression”.

In the case of `C[C@]12CC[C@H]3[C@@H](CCC4=CC(=O)CC[C@@]43C)[C@@H]1CC[C@@H]2O` [testosterone, 17-β-hydroxyandrost-4-en-3-one], the “levator ani muscle mass (levator ani muscle weights)” value ([1]; castrated C57BL/6 mice) is reported as “restored prostate as well as levator ani muscle mass”, the “prostate mass (prostate weights)” value ([1]; castrated C57BL/6 mice) is reported as “restored prostate as well as levator ani muscle mass” and the “prostate growth and prostate glands” value [6] is reported as “restored prostate mass and growth of prostate glands”. The “polyamine biosynthetic pathway / ODC gene expression in the prostate” value [7] was “activated by testosterone in the prostate”, the “polyamine biosynthetic pathway / ODC gene expression in the prostate” value ([7]; listed as Testosterone) was “upregulate several biosynthetic pathways including the polyamine biosynthetic pathway” and the “myogenic differentiation of mesenchymal multipotent cells” value [8] was “promotes myogenic differentiation; also recorded: stimulate myogenic differentiation”. For the same molecule, the “Fst, CD44 and Lef1 gene expression” value [9] was “upregulation of Fst (follastin) and CD44 and Lef1 gene expression”, the fat mass [10] was “reduces fat mass” and the “lean body mass, muscle strength and bone mineral density” value [10] was “improves lean body mass (LBM), a measure of muscle mass, muscle strength and bone mineral density (BMD)”. The “testosterone circulating unbound to plasma proteins” value [11] was “Less than 2.5%”.

B1: follistatin: an endogenous protein that increases muscle mass; recombinant Fst protein (protein, UniProt P19883 30-344, looked up)
Follistatin: GNCWLRQAKNGRCQVLYKTELSKEECCSTGRLSTSWTEEDVNDNTLFKWMIFNGGAPNCIPCKETCENVDCGPGKKCRMNKKNKPRCVCAPDCSNITWKGPVCGLDGKTYRNECALLKARCKEQPELEVQYQGRCKKTCRDVFCPGSSTCVVDQTNNAYCVTCNRICPEPASSEQYLCGNDGVTYSSACHLRKATCLLGRSIGLAYEGKCIKAKSCEDIQCTGGKKCLWDFKVGRGRCSLCDELCPDSKSDEPVCASDNATYASECAMKEAACSSGVLLEVKHSGSCNSISEDTEEEEEDEDQDYSFPISSILEW
With B1 the fat mass ([12]; castrated mice) was “reduces fat mass”, the “muscle and bone mass” value ([12]; castrated mice) was “increases muscle and bone mass” and the “lean body mass, measured by NMR” value ([12]; mice, 13 weeks systemic administration of 0, 10, 30 and 100 μg recombinant follistatin) was “increased dose-dependently”. The “fat mass, expressed as a percent of body weight” value ([12]; mice, 13 weeks systemic administration of 10, 30 and 100 μg follistatin) was “fat mass is decreased”, the “prostate growth and prostate glands” value [6] was “does not stimulate prostate growth; also recorded: did not stimulate prostate growth or glands” and the PSA expression [4] was “nor does it up regulate PSA expression; also recorded: does not stimulate PSA expression”. For the same molecule, the “proliferation of androgen-sensitive LNCaP cells” value [13] was “does not up stimulate the proliferation”, the “polyamine biosynthetic pathway / ODC gene expression in the prostate” value [7] was “not upregulated” and the “myogenic differentiation of mesenchymal multipotent cells” value [8] was “stimulate myogenic differentiation”.
